Test results from US7195879B2, “Method for identifying modulators of NAv ion channels” (priority 2002, dated 2007).
Where “and” joins values, the source holds several entries; their conditions need not be identical. Equal entries are not always repeated. Entries after “also recorded” stand apart in the source; their conditions may differ. Where two headings read alike, the source gives them in different places.

Assays:
[1] = system: TTX-R inward current (calcium currents); experiment: Whole cell voltage clamp, block of TTX-R inward current in IMR-32 cells; assay type: cell-based, human; details: 5 μM
[2] = system: IMR-32 cells grown in the presence of RA (fast transient inward currents); experiment: Whole cell voltage clamp of inward currents, IMR-32 cells grown in RA; assay type: cell-based, human
Experimental: The endogenous voltage gated Na currents expressed in IMR-32 cells grown in the presence or absence of 1 μM RA were measured using standard whole cell voltage clamp techniques (Hamill et al. (1981). The whole cell patch clamp technique was used to record voltage-activated currents from IMR-32 cells maintained for two or more days on 12 mm glass coverslips in the presence or absence of RA (1 μM). Cells were visualized using a Nikon Diaphot 300 with DIC Nomarski optics. The standard physiological saline (1 Ca tyrodes (“Tyrodes”) contains: 130 mM NaCl, 4 mM KCl, 1 mM CaCl2, 1.2 mM MgCl2, and 10 mM hemi-Na-HEPES (pH 7.3, 295–300 mOsm as measured using a Wescor 5500 vapor-pressure (Wescor, Inc., Logan, Utah)). Recording electrodes are fabricated from borosilicate capillary tubing (R6; Garner Glass, Claremont, Calif.), the tips are coated with dental periphery wax (Miles Laboratories, South Bend, Ind.), and have resistances of 1 to 2 MΩ when containing an intracellular saline designed to block outward currents: 140 mM CsCl, 0.483 mM CaCl2, 2 mM MgCl2, 10 mM HEPES free acid and 1 mM K4-BAPTA (100 nM free Ca^+2); pH 7.4, with dextrose added to achieve 290 mOsm). Current and voltage signals are detected and filtered at 2 kHz with an Axopatch 1D patch-clamp amplifier (Axon Instruments, Foster City, Calif.), digitally recorded with a DigiData 1200B laboratory interface (Axon Instruments) and PC compatible computer system and stored on magnetic disk for off-line analysis. Data acquisition and analysis are performed with PClamp software.
The total membrane capacitance (Cm) was determined as the difference between the maximum current after a 30 mV hyperpolarizing voltage ramp from −100 mV (generated at a rate of 10 mV/ms) and the steady state current at the final potential (−130 mV) (Dubin et al. (1999)).
Families of voltage-gated inward currents were obtained using a standard P/−4 protocol from −100 mV. Depolarizing voltage steps in increments of 10 mV were applied from a holding potential of −100 mV. Steady state inactivation was elicited by measuring the peak current at 0 mV after a 500 msec pre-pulse voltage between −140 and −20 mV in increments of 10 mV.

[3] = target: Nav1.3 (Homo sapiens, UniProt Q9NY46); assay type: cell-based
Nav1.3, sequence (Q9NY46 whole entry, looked up): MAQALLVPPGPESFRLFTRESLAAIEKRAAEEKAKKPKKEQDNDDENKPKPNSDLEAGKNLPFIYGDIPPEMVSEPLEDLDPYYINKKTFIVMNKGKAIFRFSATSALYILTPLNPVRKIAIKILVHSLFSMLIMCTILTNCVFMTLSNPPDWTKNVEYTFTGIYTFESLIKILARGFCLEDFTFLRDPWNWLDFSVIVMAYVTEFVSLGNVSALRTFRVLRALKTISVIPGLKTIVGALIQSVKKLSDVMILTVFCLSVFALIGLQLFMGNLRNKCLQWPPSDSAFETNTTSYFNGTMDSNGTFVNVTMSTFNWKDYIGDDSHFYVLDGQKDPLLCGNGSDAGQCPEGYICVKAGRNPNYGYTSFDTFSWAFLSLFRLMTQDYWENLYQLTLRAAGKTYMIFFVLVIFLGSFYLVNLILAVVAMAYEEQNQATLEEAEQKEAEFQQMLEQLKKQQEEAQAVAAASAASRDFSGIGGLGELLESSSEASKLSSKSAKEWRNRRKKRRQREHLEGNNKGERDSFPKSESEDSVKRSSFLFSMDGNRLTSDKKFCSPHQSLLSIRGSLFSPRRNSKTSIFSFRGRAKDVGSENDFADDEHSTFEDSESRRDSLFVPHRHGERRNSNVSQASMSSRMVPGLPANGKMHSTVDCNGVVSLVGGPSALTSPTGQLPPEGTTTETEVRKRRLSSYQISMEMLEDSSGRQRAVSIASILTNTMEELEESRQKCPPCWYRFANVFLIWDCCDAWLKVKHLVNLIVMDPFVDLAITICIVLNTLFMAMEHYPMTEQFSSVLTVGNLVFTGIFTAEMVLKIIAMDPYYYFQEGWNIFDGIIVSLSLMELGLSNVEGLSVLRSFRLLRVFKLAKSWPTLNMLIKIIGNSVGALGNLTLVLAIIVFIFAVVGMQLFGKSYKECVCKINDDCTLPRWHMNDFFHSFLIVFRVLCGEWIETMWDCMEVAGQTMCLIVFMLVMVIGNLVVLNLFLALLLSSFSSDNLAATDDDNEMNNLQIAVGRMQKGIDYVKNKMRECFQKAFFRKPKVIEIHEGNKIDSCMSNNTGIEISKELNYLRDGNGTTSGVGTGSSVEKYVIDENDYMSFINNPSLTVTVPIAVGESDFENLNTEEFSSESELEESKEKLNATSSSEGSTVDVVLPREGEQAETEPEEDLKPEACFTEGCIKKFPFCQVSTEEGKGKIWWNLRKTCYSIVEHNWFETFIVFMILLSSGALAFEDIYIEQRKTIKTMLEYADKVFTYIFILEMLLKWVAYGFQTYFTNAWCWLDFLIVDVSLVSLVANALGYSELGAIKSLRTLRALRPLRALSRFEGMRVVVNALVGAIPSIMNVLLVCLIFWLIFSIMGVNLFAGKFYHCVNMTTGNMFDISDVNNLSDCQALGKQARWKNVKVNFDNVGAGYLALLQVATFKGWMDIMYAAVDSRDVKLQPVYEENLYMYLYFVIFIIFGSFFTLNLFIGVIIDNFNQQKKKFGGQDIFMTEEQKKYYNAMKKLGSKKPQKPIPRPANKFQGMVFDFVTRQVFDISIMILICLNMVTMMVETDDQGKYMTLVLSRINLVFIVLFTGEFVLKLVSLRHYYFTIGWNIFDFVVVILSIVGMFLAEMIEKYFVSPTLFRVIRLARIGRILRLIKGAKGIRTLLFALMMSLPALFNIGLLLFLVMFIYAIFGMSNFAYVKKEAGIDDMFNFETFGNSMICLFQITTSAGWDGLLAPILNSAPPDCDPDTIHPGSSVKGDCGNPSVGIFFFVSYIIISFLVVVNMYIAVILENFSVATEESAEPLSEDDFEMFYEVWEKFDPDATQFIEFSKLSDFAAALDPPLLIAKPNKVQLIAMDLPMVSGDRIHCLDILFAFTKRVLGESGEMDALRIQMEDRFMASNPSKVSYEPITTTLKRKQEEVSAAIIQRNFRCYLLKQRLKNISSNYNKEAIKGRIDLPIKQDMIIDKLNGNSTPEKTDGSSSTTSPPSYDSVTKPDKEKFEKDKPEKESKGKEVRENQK

[4] = target: Nav1.7 (Homo sapiens, UniProt Q15858)
Nav1.7, sequence (Q15858 whole entry, looked up): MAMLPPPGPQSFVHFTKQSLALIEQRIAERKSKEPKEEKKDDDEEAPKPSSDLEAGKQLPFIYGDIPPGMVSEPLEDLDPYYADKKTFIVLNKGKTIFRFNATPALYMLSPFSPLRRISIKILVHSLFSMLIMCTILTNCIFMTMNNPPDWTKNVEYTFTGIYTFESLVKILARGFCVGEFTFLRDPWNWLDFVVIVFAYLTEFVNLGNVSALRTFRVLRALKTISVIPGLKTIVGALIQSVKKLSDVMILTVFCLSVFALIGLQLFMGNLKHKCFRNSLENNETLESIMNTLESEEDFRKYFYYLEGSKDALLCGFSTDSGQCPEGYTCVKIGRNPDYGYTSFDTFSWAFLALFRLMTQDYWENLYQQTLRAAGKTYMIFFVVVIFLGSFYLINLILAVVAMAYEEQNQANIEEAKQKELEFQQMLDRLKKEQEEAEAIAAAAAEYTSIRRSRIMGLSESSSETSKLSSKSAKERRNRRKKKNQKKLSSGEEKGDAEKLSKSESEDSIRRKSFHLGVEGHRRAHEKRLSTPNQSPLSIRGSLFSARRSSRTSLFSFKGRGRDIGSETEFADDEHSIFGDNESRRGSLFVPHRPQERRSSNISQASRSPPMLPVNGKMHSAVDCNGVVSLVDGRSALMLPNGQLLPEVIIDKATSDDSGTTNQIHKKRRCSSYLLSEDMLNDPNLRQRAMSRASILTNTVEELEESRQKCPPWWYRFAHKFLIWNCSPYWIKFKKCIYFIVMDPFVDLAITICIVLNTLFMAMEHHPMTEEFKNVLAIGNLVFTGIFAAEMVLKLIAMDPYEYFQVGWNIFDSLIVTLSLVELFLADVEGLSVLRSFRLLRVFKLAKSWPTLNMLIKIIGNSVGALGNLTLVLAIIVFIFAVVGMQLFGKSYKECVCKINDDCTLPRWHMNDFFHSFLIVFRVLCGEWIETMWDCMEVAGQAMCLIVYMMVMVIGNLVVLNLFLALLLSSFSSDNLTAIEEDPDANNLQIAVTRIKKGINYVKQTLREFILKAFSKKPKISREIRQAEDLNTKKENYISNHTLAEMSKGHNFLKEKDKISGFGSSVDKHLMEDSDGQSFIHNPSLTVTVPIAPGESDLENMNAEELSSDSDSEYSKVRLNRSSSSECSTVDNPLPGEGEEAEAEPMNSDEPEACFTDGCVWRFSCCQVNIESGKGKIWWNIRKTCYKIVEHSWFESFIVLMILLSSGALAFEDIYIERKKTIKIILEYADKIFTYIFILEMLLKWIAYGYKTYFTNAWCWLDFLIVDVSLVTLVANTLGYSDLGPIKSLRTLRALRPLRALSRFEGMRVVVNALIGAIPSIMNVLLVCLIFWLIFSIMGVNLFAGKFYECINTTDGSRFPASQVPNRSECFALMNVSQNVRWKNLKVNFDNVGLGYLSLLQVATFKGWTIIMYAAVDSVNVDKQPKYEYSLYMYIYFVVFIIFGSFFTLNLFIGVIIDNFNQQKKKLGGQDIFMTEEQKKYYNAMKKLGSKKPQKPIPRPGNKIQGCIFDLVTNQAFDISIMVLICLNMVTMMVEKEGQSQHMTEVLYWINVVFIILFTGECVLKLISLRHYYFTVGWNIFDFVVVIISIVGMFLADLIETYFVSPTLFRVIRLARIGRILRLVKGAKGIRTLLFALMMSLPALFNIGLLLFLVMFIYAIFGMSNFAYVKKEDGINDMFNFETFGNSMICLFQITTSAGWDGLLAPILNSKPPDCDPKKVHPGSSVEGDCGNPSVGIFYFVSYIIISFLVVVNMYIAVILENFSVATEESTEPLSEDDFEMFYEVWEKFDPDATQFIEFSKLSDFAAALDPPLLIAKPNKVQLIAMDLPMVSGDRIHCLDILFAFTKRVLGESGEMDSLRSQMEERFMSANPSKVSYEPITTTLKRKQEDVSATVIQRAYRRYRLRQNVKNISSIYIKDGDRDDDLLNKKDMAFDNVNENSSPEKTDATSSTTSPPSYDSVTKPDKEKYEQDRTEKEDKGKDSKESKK

[5] = system: IMR-32 cells grown in the absence of RA (inward currents); assay type: cell-based, human
[6] = system: Nav; assay type: cell-based, human

In the case of `COCC(=O)O[C@]1(CCN(C)CCCc2nc3ccccc3[nH]2)CCc2cc(F)ccc2[C@@H]1C(C)C` [mibefradil], the “block of the TTX-R current” value [1] is reported as “in part”.
In the case of `CC1=C(/C=C/C(C)=C\C=C\C(C)=C\C(=O)O)C(C)(C)CCC1` [RA, 9-cis RA], the peak inward currents ([2]; cells grown for more than two weeks in RA, tested in Tyrodes, n=24, vs -43.3 without RA, p<0.02) is reported as −75.3+/−10.6 pA/pF.
In the case of `NC1=N[C@H](O)[C@H]2[C@H]3O[C@]4(O)O[C@@H]([C@@H](O)[C@@]2(N1)[C@@H]4O)[C@]3(O)CO` [TTX, tetrodotoxin], the “TTX-S component of inward currents, proportion of total current” value [2] is reported as 36+/−7%, the “block of inward currents” value [2] is reported as 92% and the “effect on inward currents” value [2] is reported as “little effect”. The “block of veratridine-induced depolarization / fluorescence signal” value [3] was “completely suppressed; also recorded: completely blocked; also recorded: nearly completely blocks”, the “proportion of the veratridine-induced response blocked” value [3] was 90% and 88% and 89% and the “steepness of the dose response relationship” value [3] was 0.76 and 0.89 and 0.79. The IC50 ([3]; read-out: IC50, block of veratridine-stimulated sodium influx) was 3.3 nM, the IC50 ([3]; read-out: concentration to half block the veratridine-induced increase in fluorescence (IC50)) was 2.8 nM and the “block of veratridine induced signal” value [4] was “nearly completely blocks”. For the same compound, the “proportion of the veratridine-induced response blocked” value [4] was 82% and 80%, the “steepness of the dose response relationship” value [4] was 1.0 and 1.5 and the “TTX-S component of inward currents, proportion of total current” value [5] was 17+/−6%. For the same compound, the “block of inward currents” value [5] was “only partially blocked” and the “effect on FRET signal” value [6] was “dose dependent decreases”.
